Each structure is given as a SMILES string. ± gives the expanded uncertainty stated by the source.

A short description of this series: Molar enthalpy of transition or fusion. To be noted: Adiabatic calorimetry.

As to `Cl.NC12CC3CC(CC(C3)C1)C2` [1-aminoadamantane hydrochloride], the “Molar enthalpy of transition or fusion” value is, setting by setting: (Crystal 2) 0.0366 ± 0.000717 kcal/mol; (Crystal 3) 0.0108 ± 0.000717 kcal/mol.

Source of the values: the NIST ThermoML archive (doi:10.1021/acs.jced.7b00107).
